Measurements: ChEMBL document CHEMBL5518235, “Identification of Novel Series of Potent and Selective Relaxin Family Peptide Receptor 1 (RXFP1) Agonists” (J Med Chem, 2024)

Tests used:
[1] = Metabolic stability in human liver microsomes assessed as unbound intrinsic clearance at 1 uM incubated for 30 mins in presence of NADPH by LC-MS/MS analysis; type: ADME, Microsome; settings: 0.5 h
[2] = biological target: T1, Relaxin receptor 1 (Homo sapiens) (UniProt Q9HBX9); assay: Agonist activity at human RXFP1 expressed in T-Rex-CHO-K1 cells assessed as stimulation of cAMP production by measuring maximal efficacy at 50 uM incubated for 45 mins by HTRF assay relative to control; type: functional, cell-based
T1 sequence (whole entry): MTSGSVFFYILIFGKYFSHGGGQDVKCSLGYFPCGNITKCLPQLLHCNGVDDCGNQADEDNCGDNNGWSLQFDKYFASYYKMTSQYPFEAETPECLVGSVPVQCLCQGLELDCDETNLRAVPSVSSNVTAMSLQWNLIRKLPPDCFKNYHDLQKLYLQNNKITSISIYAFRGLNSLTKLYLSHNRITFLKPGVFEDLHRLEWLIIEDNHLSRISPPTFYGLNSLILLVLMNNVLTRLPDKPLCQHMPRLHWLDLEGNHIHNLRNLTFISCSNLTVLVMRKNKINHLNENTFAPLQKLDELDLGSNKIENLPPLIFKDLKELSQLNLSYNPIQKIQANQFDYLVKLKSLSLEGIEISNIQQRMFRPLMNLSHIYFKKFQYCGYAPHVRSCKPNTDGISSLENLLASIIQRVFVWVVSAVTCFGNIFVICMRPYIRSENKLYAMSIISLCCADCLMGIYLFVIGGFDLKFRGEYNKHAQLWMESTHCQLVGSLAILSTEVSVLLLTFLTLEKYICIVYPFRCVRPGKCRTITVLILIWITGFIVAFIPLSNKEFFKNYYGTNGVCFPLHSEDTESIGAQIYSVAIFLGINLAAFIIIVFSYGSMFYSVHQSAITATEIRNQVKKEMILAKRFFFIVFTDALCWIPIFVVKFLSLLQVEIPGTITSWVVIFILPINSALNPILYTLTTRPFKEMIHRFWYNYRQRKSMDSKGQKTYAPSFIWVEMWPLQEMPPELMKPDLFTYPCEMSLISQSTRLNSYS

[3] = Metabolic stability in cryopreserved human hepatocytes assessed as intrinsic clearance measured per 10^6 cells at 1 uM after 120 mins by LC-MS/MS analysis; type: ADME, cell-based, Hepatocyte; settings: cryopreserved hepatocytes, read-out: CLH
Relaxin receptor 1 = biological target: T2, Relaxin receptor 1 (Homo sapiens, UniProt Q9HBX9); assay: Agonist activity at human RXFP1 expressed in T-Rex-CHO-K1 cells assessed as stimulation of cAMP production incubated for 45 mins by HTRF assay; type: functional, cell-based
T2 sequence (Q9HBX9 whole entry): T1 sequence (whole entry)

[4] = Metabolic stability in human liver microsomes assessed as intrinsic clearance at 1 uM incubated for 30 mins in presence of NADPH by LC-MS/MS analysis; type: ADME, Microsome; settings: for microsomal CLint at 1 µM: liver microsomes, read-out: CLH
[5] = Lipophilicity, logD of the compound in 1-octanol and phosphate buffer at pH 7.4 incubated for 3 hrs by shake flask method based LC/MS/MS analysis; type: physicochemical; settings: for logD at 3 h: 1-octanol/phosphate buffer, pH 7.4
[6] = Metabolic stability in cryopreserved human hepatocytes assessed as unbound intrinsic clearance measured per 10^6 cells at 1 uM measured after 120 mins by LC-MS/MS analysis; type: ADME, cell-based, Hepatocyte; settings: 2 h

SMILES | CL free [1] | Emax ([2]; filed as agonist) | hepatocyte CLint at 1 µM [3] | EC50 (Relaxin receptor 1) | microsomal CLint at 1 µM [4] | logD at 3 h [5] | CL free [6] | Emax [2] | CLH ([4]; microsomes, 0.5 h, 1 µM) | logD ([5]; octanol/water, pH 7.4, 3 h, 3 h)
COc1cc(F)c(-c2cccc(C(=O)O)c2)cc1C(=O)N[C@H]1[C@@H](C(=O)Nc2cccc(S(=O)(=O)C(F)(F)F)c2)[C@@H]2C=C[C@H]1C2 | < 64 µL/min/mg | 103% | 5.4 µL/min/1e6 cells | 158 nM | < 3 µL/min/mg | 3.7 | 277 µL/min | – | – | –
COc1cc(F)c(-c2ccc(C(=O)O)cc2)cc1C(=O)Nc1ccccc1C(=O)Nc1cccc(S(=O)(=O)C(F)(F)F)c1 | < 333 µL/min/mg | 115% | 11 µL/min/1e6 cells | 200 nM | < 3 µL/min/mg | > 3.9 | 3.9 10^3uL/min | – | – | –
COc1ccccc1C(=O)N[C@@H]1[C@H](C(=O)Nc2cccc(S(=O)(=O)C(F)(F)F)c2)[C@H]2C=C[C@@H]1C2 (racemic) | 12 10^3uL/min/mg | 100% | – | 3160 nM | 300 µL/min/mg | 4.9 | – | – | – | –
COc1cc(F)c(-c2ccc(S(N)(=O)=O)cc2)cc1C(=O)N[C@@H]1[C@H]2CC[C@H](C2)[C@@H]1C(=O)Nc1cccc(S(=O)(=O)C(F)(F)F)c1 | 92000 µL/min/mg | 109% | 18 µL/min/1e6 cells | 251 nM | 74 µL/min/mg | > 3.7 | 7.8 10^3uL/min | – | – | –
COc1cc(F)ccc1C(=O)N[C@@H]1[C@H](C(=O)Nc2cccc(S(=O)(=O)C(F)(F)F)c2)[C@H]2C=C[C@@H]1C2 (racemic) | > 14 10^3uL/min/mg | 113% | – | 1580 nM | > 300 µL/min/mg | > 3 | – | – | – | –
COc1ccccc1C(=O)N[C@@H]1CCC[C@@H]1C(=O)Nc1cccc(S(=O)(=O)C(F)(F)F)c1 (racemic) | 2.4 10^3uL/min/mg | 74% | – | > 50100 nM | 174 µL/min/mg | 4.9 | – | – | – | –
COc1ccc(-c2cccnc2)cc1C(=O)N[C@@H]1[C@H](C(=O)Nc2cccc(S(=O)(=O)C(F)(F)F)c2)[C@H]2C=C[C@@H]1C2 (racemic) | > 38 10^3uL/min/mg | 87% | – | 1740 nM | > 300 µL/min/mg | 4.7 | – | – | – | –
COc1cc(F)c(-c2ccccc2)cc1C(=O)N[C@@H]1[C@H](C(=O)Nc2cccc(S(=O)(=O)C(F)(F)F)c2)[C@H]2C=C[C@@H]1C2 (racemic) | 92 10^3uL/min/mg | 93% | – | 912 nM | 110 µL/min/mg | > 3.9 | – | – | – | –
COc1cnc(-c2ccc(C(=O)O)cc2)cc1C(=O)N[C@H]1[C@@H](C(=O)Nc2cccc(S(=O)(=O)C(F)(F)F)c2)[C@@H]2C=C[C@H]1C2 (racemic) | 19 µL/min/mg | 117% | – | 3980 nM | 7 µL/min/mg | 2.3 | – | – | – | –
COc1cc(F)c(O[C@H]2CC[C@@](C)(C(=O)O)CC2)cc1C(=O)N[C@@H]1CCC[C@@H]1C(=O)Nc1ccc(F)c(S(F)(F)(F)(F)F)c1 | – | 105% | 13 µL/min/1e6 cells | 3.16 nM | – | 4.35 | 283 µL/min | – | – | –
COc1cc(F)c(-c2ccc(C[C@H](C(=O)O)N(C)C)cc2)cc1C(=O)N[C@@H]1[C@H]2CC[C@H](C2)[C@@H]1C(=O)Nc1cccc(S(=O)(=O)C(F)(F)F)c1 | 1.1 10^3uL/min/mg | 105% | – | 200 nM | 28 µL/min/mg | 3.7 | – | – | – | –
COc1cc(F)c(O[C@H]2CC[C@@](C)(C(=O)O)CC2)cc1C(=O)N[C@@H]1[C@H]2CC[C@H](C2)[C@@H]1C(=O)Nc1cccc(S(=O)(=O)C(F)(F)F)c1 | – | 109% | 15 µL/min/1e6 cells | 2 nM | – | 4.15 | 306 µL/min | – | – | –
COc1cc(F)c(O[C@H]2CC[C@@H](C(=O)O)CC2)cc1C(=O)N[C@H]1[C@H](C(=O)Nc2ccc(F)c(C(F)(F)F)c2)[C@@H]2C=C[C@H]1C2 | – | 91% | 10 µL/min/1e6 cells | 3980 nM | – | 3.5 | 91 µL/min | – | – | –
COc1cc(F)c(F)cc1C(=O)N[C@@H]1[C@H](C(=O)Nc2cccc(S(=O)(=O)C(F)(F)F)c2)[C@H]2C=C[C@@H]1C2 (racemic) | > 25 10^3uL/min/mg | 109% | – | 794 nM | > 300 µL/min/mg | > 4.2 | – | – | – | –
COc1cc(F)c(O[C@H]2CC[C@@H](C(=O)O)CC2)cc1C(=O)N[C@H]1[C@@H](C(=O)Nc2cccc(S(=O)(=O)C(F)(F)F)c2)[C@@H]2C=C[C@H]1C2 | – | 109% | 11 µL/min/1e6 cells | 63.1 nM | – | 3.25 | 100 µL/min | – | – | –
COc1cc(F)c(Oc2ccc(C(=O)O)cc2)cc1C(=O)N[C@H]1[C@@H](C(=O)Nc2cccc(S(=O)(=O)C(F)(F)F)c2)[C@@H]2C=C[C@H]1C2 (racemic) | – | 103% | 7.2 µL/min/1e6 cells | 316 nM | – | 3.6 | 480 µL/min | – | – | –
COc1cc(F)c(O[C@H]2CC[C@](C)(C(=O)O)CC2)cc1C(=O)N[C@@H]1[C@H]2CC[C@H](C2)[C@@H]1C(=O)Nc1cccc(S(=O)(=O)C(F)(F)F)c1 | – | 103% | 10 µL/min/1e6 cells | 100 nM | – | 4.2 | 222 µL/min | – | – | –
COc1ccccc1C(=O)N[C@H]1[C@@H](C(=O)Nc2cccc(S(=O)(=O)C(F)(F)F)c2)[C@H]2C=C[C@@H]1C2 (racemic) | 0.35 10^3uL/min/mg | – | – | > 50100 nM | 140 µL/min/mg | 3.5 | – | 37% | – | –
COc1cc(F)c(-c2ccc(C(=O)O)cc2)cc1C(=O)N[C@H]1[C@@H](C(=O)Nc2cccc(S(=O)(=O)C(F)(F)F)c2)[C@@H]2C=C[C@H]1C2 | 100 µL/min/mg | – | 11.7 µL/min/1e6 cells | 158 nM | – | – | 334 µL/min | – | 7.2 µL/min/mg | 3.8
COc1cc(F)c(O[C@H]2CC[C@@](C)(C(=O)O)CC2)cc1C(=O)N[C@@H]1COC[C@@H]1C(=O)Nc1cccc(S(=O)(=O)C(F)(F)F)c1 | – | 104% | 6.3 µL/min/1e6 cells | 126 nM | – | 2.6 | 23 µL/min | – | – | –
COc1cc(F)c(-c2ncc(C(=O)O)s2)cc1C(=O)N[C@H]1[C@@H](C(=O)Nc2cccc(S(=O)(=O)C(F)(F)F)c2)[C@@H]2C=C[C@H]1C2 (racemic) | 65 µL/min/mg | 111% | – | 631 nM | 13 µL/min/mg | 1.7 | – | – | – | –
